The test system of this assay is T1, P. javanicus ChE (cholinesterase from the liver of Puntius javanicus).
T1 construct: gene BCHE
As to the kind of experiment: Ellman assay (DTNB), […] nm, Michaelis-Menten fit. The class given is biochemical, Barbonymus gonionotus. The note with it: 0.1 M sodium phosphate pH 7.0, ambient temperature, 0.1-2.5 mM substrate, 95% confidence interval in brackets. (In general: DTNB colorimetry detects thiols as they appear.)

Molecules are shown by their SMILES. Where two headings read alike, the source gives them in different places.

With `CC(=O)SCC[N+](C)(C)C` [ATC, acetylthiocholine iodide], the Km (read-out: ATC) was determined as 410 µM.

For the compound `CCCC(=O)SCC[N+](C)(C)C` [BTC, S-Butyrylthiocholine iodide], the Km (read-out: BTC) was found to be 230 µM. Regarding `CCC(=O)SCC[N+](C)(C)C` [PTC, propionylthiocholine iodide], the Km (read-out: PTC) came out at 830 µM.
